Legend:
[1] = system: MDA-MB-468, BT20 and HCC38; assay: Number of persister cells after EZH2i pre-treatment and 5-FU; format: cell-based, human; conditions: 10 days pre-treatment, then 5-FU for 21 days
Method: Cell lines, culture conditions and drug treatments. […] All cell lines were cultured in a humidified 5% CO2 atmosphere at 37° C., and were tested as mycoplasma negative. […] Cells were treated with 5 μM of 5-FU (Sigma, Ref: […]) alone or in combination with KDM6A/Bi or EZH2i for indicated days. […] Cell proliferation, doubling time and IC50. MDA-MB-468, HCC38 and BT20 cells were stained with Trypan Blue (Invitrogen, Ref: T10282) exclusion test, and counted using a Countess automated cell counter (Invitrogen, Ref: C10228) at indicated time of treatment (FIG. 4a and Extended FIG. 8a/d/f).

H3K27me3, EZH2 = biological target: T1, H3K27me3, EZH2 (Homo sapiens, UniProt Q15910); assay: Western blotting of EZH2i-treated cells; format: cell-based; conditions: prior to chemotherapy treatment
T1 construct: endogenous in cells; host or cells: MDA-MB-468, HCC38 or BT20
Method: Western blotting. In Extended FIG. 8b/e/g, DMSO- and EZH2i-treated cells were lysed at 95° C. for 10 minutes in Laemmli buffer (50 mM Tris-HCl [pH 6.8], 2% SDS, 5% glycerol, 2 mM DTT, 2.5 mM EDTA, 2.5 mM EGTA, 4 mM Sodium Orthovanadate, 20 mM Sodium Fluoride, protease inhibitors, phosphatase inhibitors) and proteins concentrations were measured using a Pierce BCA protein Assay Kit (Thermo Fisher Scientific, Ref: 23225/23227). 10 μg of proteins were then separated on a 4-15% Mini-PROTEAN TGX Stain-Free Gel (Bio-Rad, Ref: 4568085) at 160V. After transfer, the membrane was blocked for 1 h at room temperature in PBS pH 7.4 containing 0.1% Tween-20 and 1% milk (Regilait). Incubation anti-H3K27me3 (Dilution: 1:2000, Cell Signaling, Ref: 9733) or EZH2 (Dilution: 1:2000, Cell Signaling, Ref: 5246) or Tubulin (Dilution: 1:1000, Thermo Fisher Scientific, Ref: 31460) primary antibodies diluted in PBS pH 7.4, 0.1% Tween-20 were performed at 4° C. overnight.

MDA-MB-468 cells = assay: Lineage barcode frequencies and diversity under 5-FU with EZH2i; format: cell-based, human
From the text: Lentivirus packaging and cell transduction. Lentivirus was produced by transfecting the barcode plasmids pRRL-CMV-GFP-BCv2Ascl and p8.9-QV and pVSVG into HEK293T cells as previously described^30. MDA-MB-468 cells from ATCC were infected at passage 11 with lentivirus produced from the barcode library (pRRL-CMV-GFP-BCv 2Ascl) which includes 18206 different barcodes of 20 bp of a random stretch, at a low multiplicity of infection (MOI 0.1) to minimize the number of cells marked by multiple barcodes. Three weeks after transduction, cells were sorted for GFP expression to select cells with barcode insertion, and used for drug treatment.
Bulk lineage barcode library preparation and sequencing. Lineage barcodes are recovered by isolating genomic DNA from cells of interest (NucleoSpin Tissue, Mini kit for DNA from cells and tissue, Macherey Nagel, Ref: 740952.50). From the isolated genomic DNA, barcodes are amplified with three nested PCR steps as decribed in^30 (see Extended Table 1 for primer sequence). In short, after a first specific PCR for the common region of the lineage barcodes, the amplified material was prepared for sequencing by addition of the illumina sequencing adaptaters and indexing and purification. Sequencing was done in order to obtain 50 reads, on average, per barcoded cell.
Single-cell lineage barcode extraction from 10× datasets. […] To avoid running scripts on all reads we: 1. used samtools to extract all unmapped reads from the 10× output bam file, 2. used awk to take reads with either a 3′ or 5′ 20 bp match to the constant flanking region of the barcode allowing one mismatch, 3. retained only reads with both a 10× cell barcode and 10× UMI. We then located the 20 bp match to one of the constant flanking regions allowing one mismatch (but filtered out reads where a mismatch was in the first or last base to ensure the barcode is at the expected position). We then further required a 4 bp exact match on the other side of the barcode, and then extracted the 20 bp viral barcode, read name, 10× cell barcode and 10× UMI.
To assign one viral barcode to each 10× cell barcode, we determined a consensus viral barcode for each UMI. For each position in the barcode we returned the most frequently observed base and the proportion of reads supporting this consensus. Barcodes associated with a 10× CB-UMI pair were filtered if the proportion of reads supporting a position was ≤0.5 at ≥3 positions. […]
Bulk barcode pre-processing. […] In brief, using R-3.4.0 (R Development Core Team (2019) http://www.R-project.org), raw reads were first filtered for perfect to the input index-and common-sequences using XCALIBR (https://github.com/NKI-GCF/xcalibr) and filtered against the barcode reference list. […]

T1 sequence (Q15910 whole entry): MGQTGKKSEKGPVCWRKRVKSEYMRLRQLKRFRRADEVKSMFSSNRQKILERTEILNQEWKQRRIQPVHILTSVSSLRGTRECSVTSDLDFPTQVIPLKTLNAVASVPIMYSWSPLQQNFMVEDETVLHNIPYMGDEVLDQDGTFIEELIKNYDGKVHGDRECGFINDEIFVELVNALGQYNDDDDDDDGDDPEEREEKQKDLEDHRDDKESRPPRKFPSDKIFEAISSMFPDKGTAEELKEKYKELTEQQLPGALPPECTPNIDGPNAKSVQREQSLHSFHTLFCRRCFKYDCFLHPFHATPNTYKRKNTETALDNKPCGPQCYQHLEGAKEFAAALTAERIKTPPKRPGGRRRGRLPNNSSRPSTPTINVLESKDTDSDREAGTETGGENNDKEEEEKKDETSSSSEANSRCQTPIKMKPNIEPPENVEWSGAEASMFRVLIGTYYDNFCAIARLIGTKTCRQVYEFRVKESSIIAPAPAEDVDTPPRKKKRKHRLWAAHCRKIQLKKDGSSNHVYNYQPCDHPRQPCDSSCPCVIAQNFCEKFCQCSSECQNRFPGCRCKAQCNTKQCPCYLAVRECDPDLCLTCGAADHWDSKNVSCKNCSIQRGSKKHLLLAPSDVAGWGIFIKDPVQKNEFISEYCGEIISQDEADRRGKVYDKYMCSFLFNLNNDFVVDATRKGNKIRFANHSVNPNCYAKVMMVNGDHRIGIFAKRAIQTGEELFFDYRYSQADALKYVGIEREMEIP
T1 sequence (O75530 whole entry partner): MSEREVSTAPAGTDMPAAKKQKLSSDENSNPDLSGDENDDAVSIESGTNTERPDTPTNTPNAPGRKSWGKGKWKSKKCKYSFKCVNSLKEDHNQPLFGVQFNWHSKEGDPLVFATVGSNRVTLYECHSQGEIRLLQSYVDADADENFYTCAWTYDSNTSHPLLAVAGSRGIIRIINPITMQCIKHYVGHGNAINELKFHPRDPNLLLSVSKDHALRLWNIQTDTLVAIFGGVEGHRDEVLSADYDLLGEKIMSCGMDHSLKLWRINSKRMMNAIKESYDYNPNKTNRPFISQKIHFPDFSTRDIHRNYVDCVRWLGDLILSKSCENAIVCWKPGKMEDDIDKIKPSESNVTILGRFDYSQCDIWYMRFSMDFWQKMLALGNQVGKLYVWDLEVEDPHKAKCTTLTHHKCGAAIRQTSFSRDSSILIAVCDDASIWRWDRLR
T1 sequence (Q15022 whole entry partner): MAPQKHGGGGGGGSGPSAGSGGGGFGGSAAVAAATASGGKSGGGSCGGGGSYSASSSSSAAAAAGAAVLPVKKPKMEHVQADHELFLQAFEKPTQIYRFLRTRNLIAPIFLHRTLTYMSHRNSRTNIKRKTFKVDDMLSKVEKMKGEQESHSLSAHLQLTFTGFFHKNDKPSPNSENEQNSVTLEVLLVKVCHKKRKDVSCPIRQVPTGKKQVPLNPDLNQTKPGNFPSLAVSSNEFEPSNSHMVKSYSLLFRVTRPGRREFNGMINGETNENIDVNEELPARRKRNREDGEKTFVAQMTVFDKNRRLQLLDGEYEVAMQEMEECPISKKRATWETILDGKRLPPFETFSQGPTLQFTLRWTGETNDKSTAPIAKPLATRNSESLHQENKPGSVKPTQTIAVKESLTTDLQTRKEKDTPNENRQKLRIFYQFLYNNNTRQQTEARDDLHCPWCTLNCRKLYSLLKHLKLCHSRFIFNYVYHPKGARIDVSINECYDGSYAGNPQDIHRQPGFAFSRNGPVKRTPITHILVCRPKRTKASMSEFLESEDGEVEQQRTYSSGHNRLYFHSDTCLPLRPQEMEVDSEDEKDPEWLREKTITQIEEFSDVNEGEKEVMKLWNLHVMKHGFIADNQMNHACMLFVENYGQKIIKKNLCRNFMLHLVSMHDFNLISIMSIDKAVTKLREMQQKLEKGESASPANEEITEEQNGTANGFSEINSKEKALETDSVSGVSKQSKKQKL

EZH2 protein levels (H3K27me3, EZH2): without perturbing EZH2 protein levels
H3K27me3 level (H3K27me3, EZH2): erasing H3K27me3
correlation scores between lineage frequencies in 5-FU and DMSO treated population (MDA-MB-468 cells; co-treatment with 5-FU, bulk lineage barcodes): increased correlation scores
Structure (SMILES): CCCc1cc(C)[nH]c(=O)c1CNC(=O)c1cc(-c2ccc(N3CCN(C(C)C)CC3)nc2)cc2c1cnn2C(C)C [EZH2i-1]
number of persister cells [1]: increased the number of persister cells
diversity in lineage barcodes in CDH2+ persister populations (MDA-MB-468 cells; R3 cluster, 5-FU with versus without EZH2i-1, p<10^-4): over 2 fold-increase

Reference: patent publication US20260266837A1, “Methods for Cancer Recurrence Detection and Treatment Thereof” (Institut Curie, priority 2022, published 2026)
